Laboratory results from ChEMBL document CHEMBL4831477, “Structure-Enabled Discovery of Novel Macrocyclic Inhibitors Targeting Glutaminase 1 Allosteric Binding Site” (J Med Chem, 2021).

What was measured:
HCT-116 [1] = assay: Antiproliferative activity against human HCT116 cells assessed as reduction in cell viability incubated for 72 hrs by MTT assay; type: functional, cell-based; settings: HCT-116, 72 h
MDA-MB-436 = assay: Antiproliferative activity against human MDA-MB-436 cells assessed as reduction in cell viability incubated for 72 hrs by MTT assay; type: functional, cell-based; settings: MDA-MB-436, 72 h
[2] = Distribution coefficient, logD of the compound at pH 7.4 by LC-MS based shake-flask method; type: physicochemical; settings: octanol/water
[3] = Metabolic stability in mouse plasma assessed as compound remaining after 2 hrs by LC-MS/MS analysis; type: ADME, cell-free; settings: read-out: Stability
[4] = Metabolic stability in human plasma assessed as compound remaining after 2 hrs by LC-MS/MS analysis; type: ADME, cell-free; settings: read-out: Stability
[5] = Metabolic stability in human liver microsomes assessed as half life at 10 uM preincubated for 5 mins followed by NADPH addition by LC-MS/MS analysis; type: ADME, Microsome
[6] = Metabolic stability in human liver microsomes assessed as clearance at 10 uM preincubated for 5 mins followed by NADPH addition by LC-MS/MS analysis; type: ADME, Microsome; settings: read-out: CLH
[7] = Metabolic stability in mouse liver microsomes assessed as half life at 10 uM preincubated for 5 mins followed by NADPH addition by LC-MS/MS analysis; type: ADME, Microsome
[8] = Metabolic stability in mouse liver microsomes assessed as clearance at 10 uM preincubated for 5 mins followed by NADPH addition by LC-MS/MS analysis; type: ADME, Microsome; settings: read-out: CLH
[9] = Half life in Sprague-Dawley rat at 5 mg/kg, iv measured upto 72 hrs by LC-MS/MS analysis; type: ADME, organism-based; settings: in vivo
[10] = Half life in Sprague-Dawley rat at 200 mg/kg, po measured upto 72 hrs by LC-MS/MS analysis; type: ADME, organism-based; settings: in vivo
[11] = Cmax in Sprague-Dawley rat at 200 mg/kg, po measured upto 72 hrs by LC-MS/MS analysis; type: ADME, organism-based; parameters: route oral, dose 200 mg/kg, time <=72; settings: in vivo
[12] = AUC(0 to t) in Sprague-Dawley rat at 5 mg/kg, iv measured upto 72 hrs by LC-MS/MS analysis; type: ADME, organism-based; parameters: route intravenous, dose 5 mg/kg, time <=72; settings: in vivo
[13] = AUC(0 to t) in Sprague-Dawley rat at 200 mg/kg, po measured upto 72 hrs by LC-MS/MS analysis; type: ADME, organism-based; parameters: route oral, dose 200 mg/kg, time <=72; settings: in vivo
[14] = AUC(0 to infinity) in Sprague-Dawley rat at 5 mg/kg, iv measured upto 72 hrs by LC-MS/MS analysis; type: ADME, organism-based; parameters: route intravenous, dose 5 mg/kg, time <=72; settings: in vivo, 72 h
[15] = AUC(0 to infinity) in Sprague-Dawley rat at 200 mg/kg, po measured upto 72 hrs by LC-MS/MS analysis; type: ADME, organism-based; parameters: route oral, dose 200 mg/kg, time <=72; settings: Sprague-Dawley, in vivo
[16] = Clearance in Sprague-Dawley rat at 5 mg/kg, iv measured upto 72 hrs by LC-MS/MS analysis; type: ADME, organism-based; settings: in vivo, 5 mg/kg, 72 h
[17] = Clearance in Sprague-Dawley rat at 200 mg/kg, po measured upto 72 hrs by LC-MS/MS analysis; type: ADME, organism-based; settings: Sprague-Dawley, in vivo
[18] = Apparent volume of distribution in Sprague-Dawley rat at 5 mg/kg, iv measured upto 72 hrs by LC-MS/MS analysis; type: ADME, organism-based; settings: in vivo, read-out: Vz
[19] = Apparent volume of distribution in Sprague-Dawley rat at 200 mg/kg, po measured upto 72 hrs by LC-MS/MS analysis; type: ADME, organism-based; settings: in vivo
[20] = Oral bioavailability in Sprague-Dawley rat at 200 mg/kg measured upto 72 hrs by LC-MS/MS analysis; type: ADME, organism-based; settings: in vivo
HCT-116 [21] = assay: Antitumor activity against human HCT-116 cells xenografted in BALB/c nude mouse assessed as tumor growth inhibition at 200 mg/kg, po administered twice daily measured after 28 days; type: functional; settings: time 28 day
[22] = Toxicity in BALB/c nude mouse xenografted with human HCT-116 cells assessed as tolerability at 200 mg/kg, po administered twice daily measured after 28 days; type: organism-based; settings: in vivo, 672 h, time 28 day
[23] = Toxicity in BALB/c nude mouse xenografted with human HCT-116 cells assessed as body weight loss at 200 mg/kg, po administered twice daily for 28 days and measured every 3 days; type: organism-based; settings: in vivo, 672 h, time 28 day
[24] = Cmax in BALB/c nude mouse plasma xenografted with human HCT-116 cells at 200 mg/kg, po administered twice daily for 28 days; type: ADME, organism-based; parameters: route oral, time 28 day, dose 200 mg/kg
[25] = fCmax in BALB/c nude mouse plasma xenografted with human HCT-116 cells at 200 mg/kg, po administered twice daily for 28 days; type: ADME, organism-based; settings: in vivo, 672 h, time 28 day
[26] = Free plasma protein in mouse; type: ADME, cell-free

O=C(Cc1cccc(OC(F)(F)F)c1)Nc1ccc(CCCCc2nnc(NC(=O)Cc3ccccn3)s2)nn1
IC50 (HCT-116 [1]): 110 nM | IC50 (MDA-MB-436): 430 nM | logD [2]: 2.24 | remaining at 2 h [3]: 72% | remaining at 2 h [4]: 84% | half-life at 10 µM [5]: 1.4 h | microsomal CLint at 10 µM [6]: 9.7 µL/min/mg | half-life at 10 µM [7]: 1.05 h | microsomal CLint at 10 µM [8]: 12.3 µL/min/mg | half-life [9]: 3.7 h | half-life [10]: 3.2 h | Cmax [11]: 1720 ng/mL | AUC(0-t) at 72 h [12]: 2380 ng·h/mL | AUC(0-t) at 72 h [13]: 18900 ng·h/mL | AUC [14]: 2431 ng·h/mL | AUC(0-inf) [15]: 18900 ng·h/mL | CL [16]: 135 mL/min/kg | CL/F [17]: 187 mL/min/kg | Vd [18]: 26.1 L/kg | Vz [19]: 60.9 L/kg | bioavailability [20]: 19% | TGI (HCT-116 [21]): 45% | Activity [22]: Non-Toxic | Activity [23]: Non-Toxic | Cmax [24]: 3.01 µM | fCmax [25]: 0.31 µM | fraction unbound [26]: 0.103
